“And” between values parts separate entries of the source, which are not always exact repeats. Identical values can stand only once. Inconclusive results are not listed. *1 amine or outer side, *2 acyl side, *3 side chain or, on linkers, in order; H or OH if unused. Where a SMILES comes first, the peptide text is derived from it. Bridges are numbered along the chain shown (N, C = ends). Roman numbers before positions name the chains, in order. [ ]: non-standard residue; d: D form. Actinocin(9to1) = Cc1c2oc3c(C)ccc(C(=O)[*:1])c3nc-2c(C(=O)[*:2])c(N)c1=O; aThr = C[C@H](O)[C@H](N)C(=O)O; NMeV = CN[C@H](C(=O)O)C(C)C; Sar = CNCC(=O)O
System: BDF1 mice, s.c. Lewis lung carcinoma, T/C %
Experiment: NCI In Vivo Anticancer Drug Screen. Data for tumor model Lewis Lung Carcinoma (subcutaneous) in B6D2F1 (BDF1) mice
Protocol: The antitumor activity of compounds was measured in mice bearing transplantable tumors. Survival or tumor size were measured and the results are expressed as the measurement made in the treated group (T) divided by the measurement made in the vehicle treated control group (C). The tumor model used in this assay is Lewis Lung Carcinoma (subcutaneous) in B6D2F1 (BDF1) mice

Q: `Cc1c2oc3c(C)ccc(C(=O)N[C@@H]4C(=O)N[C@H](C(C)C)C(=O)N5CCC[C@H]5C(=O)N(C)CC(=O)N(C)[C@@H](C(C)C)C(=O)O[C@H]4C)c3nc-2c(C(=O)N[C@@H]2C(=O)N[C@H](C(C)C)C(=O)N3CCC[C@H]3C(=O)N(C)CC(=O)N(C)[C@@H](C(C)C)C(=O)O[C@H]2C)c(N)c1=O` (I: [aThr][dV]P[Sar][NMeV] / II: [aThr][dV]P[Sar][NMeV]; ester I:1-I:C, II:1-II:C; linker I:N-II:N via Actinocin(9to1)) was tested. Which T/C (endpoint: mean tumor weight, dose: 0.03 mg/kg/injection, schedule: Q01DX011 (ip), vehicle: saline, higher = larger tumour) did it give?
A: 89 % of control

Q: What about the T/C (endpoint: mean tumor weight, dose: 0.05 mg/kg/injection, schedule: Q01DX011 (ip), vehicle: saline, higher = larger tumour) of the same compound?
A: 55 % of control

Q: What about the T/C (endpoint: mean tumor weight, dose: 12.0 micrograms/kg/injection, schedule: Q01DX011 (ip), vehicle: other, higher = larger tumour) of the same compound?
A: 122 % of control

Q: What about the T/C (endpoint: mean tumor weight, dose: 25.0 micrograms/kg/injection, schedule: Q01DX011 (ip), vehicle: other, higher = larger tumour) of the same compound?
A: 95 % of control and 98 % of control

Q: And the T/C (endpoint: mean tumor weight, dose: 50.0 micrograms/kg/injection, schedule: Q01DX011 (ip), vehicle: other, higher = larger tumour)?
A: 42 % of control and 49 % of control

Q: What about the T/C (endpoint: median survival time, dose: 12.5 micrograms/kg/injection, schedule: Q01DX009 (ip), vehicle: saline, higher = longer survival) of the same compound?
A: 98 % of control and 122 % of control

Q: And the T/C (endpoint: median survival time, dose: 12.5 micrograms/kg/injection, schedule: Q01DX009 (ip), vehicle: water, higher = longer survival)?
A: 112 % of control

Q: What about the T/C (endpoint: median survival time, dose: 13.0 micrograms/kg/injection, schedule: Q01DX009 (ip), vehicle: saline, higher = longer survival) of the same compound?
A: 116 % of control

Q: What about the T/C (endpoint: median survival time, dose: 25.0 micrograms/kg/injection, schedule: Q01DX009 (ip), vehicle: water, higher = longer survival) of the same compound?
A: 120 % of control

Q: What about the T/C (endpoint: median survival time, dose: 50.0 micrograms/kg/injection, schedule: Q01DX009 (ip), vehicle: water, higher = longer survival) of the same compound?
A: 102 % of control

Q: What about the T/C (endpoint: median survival time, dose: 75.0 micrograms/kg/injection, schedule: Q04DX003 (ip), vehicle: water, higher = longer survival) of the same compound?
A: 153 % of control

Q: What about the T/C (endpoint: median survival time, dose: 150.0 micrograms/kg/injection, schedule: Q04DX003 (ip), vehicle: water, higher = longer survival) of the same compound?
A: 105 % of control

Q: What about the T/C (endpoint: median tumor weight (est.), dose: 12.0 micrograms/kg/injection, schedule: Q01DX009 (ip), vehicle: saline, higher = larger tumour) of the same compound?
A: 88 % of control

Q: And the T/C (endpoint: median tumor weight (est.), dose: 25.0 micrograms/kg/injection, schedule: Q01DX009 (ip), vehicle: saline, higher = larger tumour)?
A: 98 % of control

Q: And the T/C (endpoint: median tumor weight (est.), dose: 50.0 micrograms/kg/injection, schedule: Q01DX009 (ip), vehicle: saline, higher = larger tumour)?
A: 70 % of control

Q: What about the T/C (endpoint: median tumor weight (est.), dose: 100.0 micrograms/kg/injection, schedule: Q01DX009 (ip), vehicle: saline, higher = larger tumour) of the same compound?
A: 51 % of control

Q: Which T/C (endpoint: mean tumor weight, dose: 25.0 mg/kg/injection, schedule: Q01DX011 (ip), vehicle: saline, higher = larger tumour) does the source give for `NC(=O)n1cccn1` here?
A: 76 % of control

Q: What about the T/C (endpoint: mean tumor weight, dose: 25.0 mg/kg/injection, schedule: Q01DX011 (ip), vehicle: water, higher = larger tumour) of the same compound?
A: 88 % of control

Q: What about the T/C (endpoint: mean tumor weight, dose: 50.0 mg/kg/injection, schedule: Q01DX011 (ip), vehicle: saline, higher = larger tumour) of the same compound?
A: 61 % of control

Q: And the T/C (endpoint: mean tumor weight, dose: 50.0 mg/kg/injection, schedule: Q01DX011 (ip), vehicle: water, higher = larger tumour)?
A: 61 % of control

Q: What about the T/C (endpoint: mean tumor weight, dose: 100.0 mg/kg/injection, schedule: Q01DX011 (ip), vehicle: saline, higher = larger tumour) of the same compound?
A: 49 % of control

Q: And the T/C (endpoint: mean tumor weight, dose: 100.0 mg/kg/injection, schedule: Q01DX011 (ip), vehicle: water, higher = larger tumour)?
A: 39 % of control

Q: With `CN(C)CC/C=C1\c2ccccc2Sc2ccc(Cl)cc21` as the compound, how does the T/C (endpoint: median survival time, dose: 1.87 mg/kg/injection, schedule: Q01DX001 (ip), vehicle: Klucel (hydroxypropylcellulose) (HPC), higher = longer survival) read?
A: 102 % of control

Q: What about the T/C (endpoint: median survival time, dose: 3.75 mg/kg/injection, schedule: Q01DX001 (ip), vehicle: Klucel (hydroxypropylcellulose) (HPC), higher = longer survival) of the same compound?
A: 109 % of control

Q: And the T/C (endpoint: median survival time, dose: 7.5 mg/kg/injection, schedule: Q01DX001 (ip), vehicle: Klucel (hydroxypropylcellulose) (HPC), higher = longer survival)?
A: 88 % of control

Q: And the T/C (endpoint: median survival time, dose: 15.0 mg/kg/injection, schedule: Q01DX001 (ip), vehicle: Klucel (hydroxypropylcellulose) (HPC), higher = longer survival)?
A: 102 % of control

Q: For `CNC(=O)N(C)c1cc(N(C)C)nc(OC)n1`, which T/C (endpoint: median survival time, dose: 5.0 mg/kg/injection, schedule: Q01DX009 (ip), vehicle: Klucel (hydroxypropylcellulose) (HPC), higher = longer survival) is on record?
A: 98 % of control

Q: And the T/C (endpoint: median survival time, dose: 10.0 mg/kg/injection, schedule: Q01DX009 (ip), vehicle: Klucel (hydroxypropylcellulose) (HPC), higher = longer survival)?
A: 115 % of control

Q: For `COc1cc([C@@H]2c3cc4c(cc3[C@@H](OC3OC5COC(C)OC5C(O)C3O)[C@H]3COC(=O)[C@H]23)OCO4)cc(OC)c1O` (stereo not given in full), which T/C (endpoint: median survival time, dose: 4.0 mg/kg/injection, schedule: Q01DX009 (ip), vehicle: saline, higher = longer survival) is on record?
A: 124 % of control

Q: What about the T/C (endpoint: median survival time, dose: 20.0 mg/kg/injection, schedule: Q04DX003 (ip), vehicle: saline, higher = longer survival) of the same compound?
A: 107 % of control

Q: What about the T/C (endpoint: median survival time, dose: 20.0 mg/kg/injection, schedule: Q04DX003 (sc), vehicle: saline, higher = longer survival) of the same compound?
A: 124 % of control

Q: And the T/C (endpoint: median survival time, dose: 80.0 mg/kg/injection, schedule: Q04DX003 (ip), vehicle: saline, higher = longer survival)?
A: 91 % of control

Q: With `[CH3][Sn]([CH3])([CH3])[O]C(=O)CCl` as the compound, how does the T/C (endpoint: median survival time, dose: 0.19 mg/kg/injection, schedule: Q01DX009 (ip), vehicle: saline, higher = longer survival) read?
A: 100 % of control

Q: What about the T/C (endpoint: median survival time, dose: 0.38 mg/kg/injection, schedule: Q01DX009 (ip), vehicle: saline, higher = longer survival) of the same compound?
A: 104 % of control

Q: And the T/C (endpoint: median survival time, dose: 0.75 mg/kg/injection, schedule: Q01DX009 (ip), vehicle: saline, higher = longer survival)?
A: 88 % of control and 97 % of control

Reference: PubChem BioAssay AID270 (DTP/NCI, 2004)
